The values that follow come from BindingDB's records for doi:10.1016/j.ejmech.2018.09.013 (Wuhan Institute of Technology, 2018).

Assay [1] in a line: Inhibition of wild-type HIV1 3B reverse transcriptase infected in human MT4 cells harboring GFP by scanning microscopic analysis.
The nature of assay [2]: Inhibition of HIV1 reverse transcriptase Y181C mutant infected in human MT4 cells harboring GFP by scanning microscopic analysis.
A short description of assay [3]: Inhibition of HIV1 reverse transcriptase K103N mutant infected in human MT4 cells harboring GFP by scanning microscopic analysis.
The nature of assay [4]: Inhibition of HIV1 reverse transcriptase K103N/Y181C double mutant infected in human MT4 cells harboring GFP by scanning microscopic analysis.
Assay [5] can be described thus: Inhibition of HIV1 LAI reverse transcriptase infected in human MT4 cells assessed as protection against virus-induced cytopathic effect by MTT assay. For orientation: Damage to the host cells serves as the signal in cytopathic effect assays.
Assay [6] is described as follows: Inhibition of HIV1 reverse transcriptase L100I mutant infected in human MT4 cells assessed as protection against virus-induced cytopathic effect by MTT assay.
Assay [7] is described as follows: Inhibition of HIV1 reverse transcriptase Y188L mutant infected in human MT4 cells assessed as protection against virus-induced cytopathic effect by MTT assay.
Assay [8] is described as follows: Inhibition of HIV1 reverse transcriptase K103N mutant infected in human MT4 cells assessed as protection against virus-induced cytopathic effect by MTT assay.
Assay [9] in a line: Inhibition of HIV1 reverse transcriptase Y181C mutant infected in human MT4 cells assessed as protection against virus-induced cytopathic effect by MTT assay.
Assay [10] can be described thus: Inhibition of HIV1 reverse transcriptase L100I/K103N double mutant infected in human MT4 cells assessed as protection against virus-induced cytopathic effect by MTT assay.
Assay [11] in a line: Inhibition of HIV1 reverse transcriptase K103N/Y188C double mutant infected in human MT4 cells assessed as protection against virus-induced cytopathic effect by MTT assay.
A short description of assay [12]: Inhibition of wild-type HIV1 3B reverse transcriptase infected in human MT4 cells assessed as protection against virus-induced cytopathic effect measured after 4 days by MTT assay.
Assay [13] is described as follows: Inhibition of HIV1 reverse transcriptase K103N/Y188C double mutant infected in human MT4 cells assessed as protection against virus-induced cytopathic effect measured after 4 days by MTT assay.
Assay [14] in a line: Inhibition of wild-type HIV1 3B reverse transcriptase infected in human MT4 cells assessed as protection against virus-induced cytopathic effect measured 5 days post infection by MTT assay.
A short description of assay [15]: Inhibition of HIV1 reverse transcriptase Y181C mutant infected in human MT2 cells assessed as protection against virus-induced cytopathic effect by MTT assay.
Assay [16] is described as follows: Inhibition of HIV1 reverse transcriptase K103N/Y181C double mutant infected in human MT2 cells assessed as protection against virus-induced cytopathic effect by MTT assay.
A further assay has as its target Reverse transcriptase (Human immunodeficiency virus 1, UniProt Q9WKE8). Put plainly: Inhibition of CXCR4 tropic HIV1 3B reverse transcriptase infected in human TZM-bl cells.
Assay [17] is described as follows: Inhibition of CCR5 tropic HIV1 VB59 reverse transcriptase infected in human TZM-bl cells.
A short description of assay [18]: Inhibition of CCR5 tropic HIV1 ADA5 reverse transcriptase infected in human TZM-bl cells.
The nature of assay [19]: Inhibition of CXCR4 tropic HIV1 UG070 reverse transcriptase infected in human TZM-bl cells.
Assay [20] has as its target recombinant HIV1 reverse transcriptase Y188L mutant. Put plainly: Inhibition of recombinant HIV1 reverse transcriptase Y188L mutant.
A short description of assay [21]: Inhibition of HIV1 reverse transcriptase K103N/Y188C double mutant infected in human MT4 cells assessed as protection against virus-induced cytopathic effect measured 5 days post infection by MTT assay.

In general, EC50 refers to the concentration giving half of the maximal effect. As usually defined, the IC50 is the point on the concentration scale where inhibition reaches its midpoint.

As for `CN(C)CCNC(=O)c1cnc(Nc2ccc(C#N)cc2)nc1Nc1ccc(/C=C/C#N)cc1`, the EC50 was found to be 0.794 nM in [1], 16 nM in assay [2], 0.631 nM in assay [3] and 20 nM in [4].
`N#Cc1ccc(Nc2nc(N)cc(Cc3c(Cl)cccc3Cl)n2)cc1`: the IC50 in assay [5] was 1 nM; in assay [6] it was 299 nM; in assay [7] it was 71 nM; in assay [8] it was 12 nM; in assay [9] it was 175 nM.
Regarding `N#C/C=C/c1ccc(Nc2nc(Nc3ccc(C#N)cc3)ncc2C(=O)NCCCN2CCCC2)cc1`, the EC50 came to 0.794 nM in assay [1], 20 nM in assay [2], 1 nM in [3] and 16 nM in assay [4].
Consider `Cc1cc(C#N)cc(C)c1Nc1ccnc(Nc2ccc(C#N)cc2)n1`, for which the IC50 in assay [5] was found to be 0.4 nM; in assay [6] it was 34 nM; in assay [7], 7.8 nM; in [8], 1.9 nM; in assay [9] it was 7.1 nM; in [10], 1090 nM. In assay [11], the IC50 came out at 37 nM.
Turning to `Cc1cc(C#N)cc(C)c1Nc1nc(Nc2ccc(C#N)cc2)ncc1Cl`, the IC50 in assay [5] is 1.2 nM; in assay [6], 5.2 nM; in assay [7], 4.7 nM; in assay [8], 0.9 nM; in assay [9], 14 nM; in [10], 144 nM. In [11], the IC50 was determined as 69 nM.
Consider `N#Cc1ccc(Nc2nccc(Oc3ccc4cc(C#N)ccc4c3Br)n2)cc1`, for which the values for the EC50 in assay [12] and in [13] were 2 nM and 0.24 µM, respectively.
Take `Cc1cc(C#CCCO)cc(C)c1Oc1ccnc(Nc2ccc(C#N)cc2)n1`: the EC50 in [14] was determined as 3 nM.
Consider `N#Cc1ccc(Nc2cc(Cc3c(Cl)cccc3Cl)nc(N)n2)cc1`, for which the IC50 is 10 nM in [5]; 96600 nM in assay [6]; greater than 100000 nM in assay [7]; 33300 nM in [8]; greater than 100000 nM in [9].
As to `Cc1cc(C#N)cc(C)c1Nc1nc(Nc2ccc(C#N)cc2)ncc1C#N`, the IC50 in assay [5] was determined as 0.5 nM; in assay [6], 91 nM; in assay [7] it was 8.6 nM; in assay [8], 2.6 nM; in assay [9], 76 nM; in assay [10], 312 nM. Moreover, the IC50 in assay [11] is 181 nM.
Take `Cc1cc(C)c(Nc2cc(OCCCN3CCOCC3)nc(Nc3ccc(C#N)cc3)n2)c(C)c1`: the EC50 in [15] was 480 nM; in assay [16], 38 nM.
`Cc1cc(Br)cc(C)c1Sc1ccnc(Nc2ccc(C#N)cc2)n1`: the IC50 was 5.7 nM in assay [5]; 174 nM in assay [6]; 44 nM in assay [7]; 39 nM in [8]; 68 nM in [9]; 3890 nM in assay [10]. The IC50 in assay [11] came to 354 nM.
Take `Cc1cc(C#N)cc(C)c1Oc1ccnc(Nc2ccc(C#N)cc2)n1`: the IC50 was 1.1 nM in [5]; 73 nM in [6]; 19 nM in [7]; 2.7 nM in [8]; 37 nM in [9]; 798 nM in assay [10]. Further, the IC50 in [11] was determined as 94 nM.
As to `N#Cc1ccc(Nc2cc(N)nc(Cc3c(Cl)cccc3Cl)n2)cc1`, the IC50 in assay [5] was 452 nM; in [6] it was greater than 100000 nM; in assay [7], greater than 100000 nM; in assay [8], greater than 100000 nM; in assay [9], greater than 100000 nM.
Regarding `C=Cc1cnc(Nc2ccc(C#N)cc2)nc1Nc1c(C)cc(C)cc1C`, the IC50 in assay [5] is 2.5 nM; in assay [6] it was 35 nM; in assay [7], 29 nM; in assay [8], 5.8 nM; in assay [9], 36 nM; in assay [10] it was greater than 100000 nM. Also, in assay [11], the IC50 is 106 nM.
In the case of `N#C/C=C/c1ccc(Nc2cc(NCCCN3CCOCC3)nc(Nc3ccc(C#N)cc3)n2)cc1`, the 50% effective concentration (EC50) in assay [1] turned out to be 20 nM; in assay [2], 87 nM; in assay [3], 219 nM; in assay [4], 98 nM.
With `Cc1cnc(Nc2ccc(C#N)cc2)nc1Nc1c(C)cc(C#N)cc1C`, the IC50 in assay [5] is 0.8 nM; in assay [6], 16 nM; in [7] it was 16 nM; in assay [8], 1.7 nM; in assay [9], 12 nM; in assay [10] it was greater than 10000 nM. Moreover, the IC50 in [11] was determined as 162 nM.
With `Cc1cc(C#N)cc(C)c1Oc1nc(Nc2ccc(C#N)cc2)ncc1N`, the IC50 in assay [5] worked out at 1 nM; in assay [6], 16 nM; in [7] it was 5.7 nM; in assay [8], 1.3 nM; in assay [9], 9.3 nM; in assay [10], 282 nM. In addition, the IC50 in [11] came to 14 nM.
As to `N#Cc1ccc(Nc2nc(N)nc(Cc3c(Cl)cccc3Cl)n2)cc1`, the IC50 in assay [5] was found to be 6 nM; in [6] it was 398 nM; in [7], 316 nM; in [8], 40 nM; in assay [9] it was 200 nM.
With `N#Cc1ccc(Nc2nccc(Oc3ccc4ccccc4c3Br)n2)cc1`, the values for the EC50 in [12] and in [13] were 2.4 nM and 6.57 µM, respectively.
Regarding `Cc1cc(C)c(Nc2nc(Nc3ccc(C#N)cc3)ncc2-c2ccccc2)c(C)c1`, in [5], the IC50 turned out to be 24 nM.
For the compound `Cc1cc(C#N)cc(C)c1Nc1nc(Nc2ccc(C#N)cc2)ncc1Br`, the IC50 in assay [5] worked out at 0.4 nM; in [6], 7 nM; in assay [7] it was 3.3 nM; in [8], 0.4 nM; in assay [9], 9.6 nM; in assay [10], 37 nM. In assay [11], the IC50 worked out at 32 nM.
For `Cc1cc(C)c(Nc2nc(Cl)nc(Nc3ccc(C#N)nc3)n2)c(C)c1`, the IC50 at Reverse transcriptase was determined as 0.124 nM; in assay [17], 0.497 nM; in assay [18] it was 0.273 nM; in [19], 1.12 nM.
As to `Cc1cc(C)c(Nc2ccnc(Nc3ccc(C(N)=O)cc3)n2)c(C)c1`, in assay [20], the IC50 is less than 10 µM.
On to `Cc1cc(C#N)cc(C)c1Oc1nc(Nc2ccc(C#N)cc2)ncc1[N+](=O)[O-]`, for which the IC50 in assay [5] was 18 nM; in assay [6], 121 nM; in [7] it was 782 nM; in assay [8] it was 10 nM; in [9], 304 nM; in assay [10] it was greater than 10000 nM. The IC50 in assay [11] amounted to 194 nM.
In the case of `N#C/C=C/c1ccc(Nc2cc(NCCc3ccc(S(N)(=O)=O)cc3)nc(Nc3ccc(C#N)cc3)n2)cc1`, the EC50 came out at 16 nM in assay [1], 98 nM in [2], 389 nM in assay [3] and 91 nM in assay [4].
With `CC(=O)Nc1cnc(Nc2ccc(C#N)cc2)nc1Oc1c(C)cc(C#N)cc1C`, the IC50 in assay [8] was 3.3 nM; in [10], 205 nM; in assay [11] it was 30 nM.
On to `Cc1cc(/C=C/C#N)cc(C)c1Nc1nc(Nc2ccc(C#N)cc2)nc(OCCCN2CCOCC2)n1`, for which the EC50 is 12 nM in [15] and 1.3 nM in assay [16].
With `C#Cc1cnc(Nc2ccc(C#N)cc2)nc1Nc1c(C)cc(C)cc1C`, the IC50 turned out to be 6.2 nM in [8], 71 nM in assay [10] and 42 nM in assay [11].
In the case of `Cc1cc(C)c(Nc2nc(N)nc(Nc3ccc(C#N)nc3)n2)c(C)c1`, the IC50 against Reverse transcriptase turned out to be 0.131 nM; in [17], 0.183 nM; in assay [18], 0.183 nM; in [19], 0.784 nM.
As to `CCN(c1nc(Nc2ccc(C#N)cc2)nc(Oc2c(C)cc(C)cc2C)n1)N1CCOCC1`, the results for the EC50 in assay [14] and in assay [21] were 7.8 nM and 650 nM, respectively.
